In patent US20250115598A1 (Anaxis Pharma Pty Ltd, priority 2021, published 2025):

How the values were obtained:
[1] = target: human RIPK3 (Homo sapiens (Human), UniProt Q9Y572); assay: KINOMEscan binding assay, human RIPK3; conditions: Table 21
Protocol: (§1) Binding affinity of the test compounds for human MLKL (full length), mouse MLKL (full length), human RIPK1 and human RIPK3 was determined using the KINOMEscan™ technology developed by DiscoverX (USA; http://www.discoverx.com). The assay was conducted according to manufacturer instructions.
(§2) Kinase assays. For most assays, kinase-tagged T7 phage strains were grown in parallel in 24-well blocks in an E. coli host derived from the BL21 strain. E. coli were grown to log-phase and infected with T7 phage from a frozen stock (multiplicity of infection=0.4) and incubated with shaking at 32° C. until lysis (90-150 minutes). The lysates were centrifuged (6,000×g) and filtered (0.2 μm) to remove cell debris. The remaining kinases were produced in HEK-293 cells and subsequently tagged with DNA for qPCR detection. […] The liganded beads were blocked with excess biotin and washed with blocking buffer (SeaBlock (Pierce), 1% BSA, 0.05% Tween 20, 1 mM DTT) to remove unbound ligand and to reduce non-specific phage binding. […] All reactions were performed in polypropylene 384-well plates in a final volume of 20 μL. […] The kinase concentration in the eluates was measured by qPCR.
(§3) An 11-point 3-fold serial dilution of each test compound was prepared in 100% DMSO at 100× final test concentration and subsequently diluted to 1× in the assay (final DMSO concentration=1%). Most Kos were determined using a compound top concentration=30,000 nM.
(§4) KD for each test compound was calculated with a standard dose-response curve using the Hill equation (equation (1)): […]
(§5) The Hill Slope was set to −1.
(§6) Curves were fitted using a non-linear least square fit with the Levenberg-Marquardt algorithm.

[2] = target: human RIPK1 (Homo sapiens (Human), UniProt Q13546); assay: KINOMEscan binding assay, human RIPK1; conditions: Table 21
Sequence of human RIPK1 (Q13546 whole entry): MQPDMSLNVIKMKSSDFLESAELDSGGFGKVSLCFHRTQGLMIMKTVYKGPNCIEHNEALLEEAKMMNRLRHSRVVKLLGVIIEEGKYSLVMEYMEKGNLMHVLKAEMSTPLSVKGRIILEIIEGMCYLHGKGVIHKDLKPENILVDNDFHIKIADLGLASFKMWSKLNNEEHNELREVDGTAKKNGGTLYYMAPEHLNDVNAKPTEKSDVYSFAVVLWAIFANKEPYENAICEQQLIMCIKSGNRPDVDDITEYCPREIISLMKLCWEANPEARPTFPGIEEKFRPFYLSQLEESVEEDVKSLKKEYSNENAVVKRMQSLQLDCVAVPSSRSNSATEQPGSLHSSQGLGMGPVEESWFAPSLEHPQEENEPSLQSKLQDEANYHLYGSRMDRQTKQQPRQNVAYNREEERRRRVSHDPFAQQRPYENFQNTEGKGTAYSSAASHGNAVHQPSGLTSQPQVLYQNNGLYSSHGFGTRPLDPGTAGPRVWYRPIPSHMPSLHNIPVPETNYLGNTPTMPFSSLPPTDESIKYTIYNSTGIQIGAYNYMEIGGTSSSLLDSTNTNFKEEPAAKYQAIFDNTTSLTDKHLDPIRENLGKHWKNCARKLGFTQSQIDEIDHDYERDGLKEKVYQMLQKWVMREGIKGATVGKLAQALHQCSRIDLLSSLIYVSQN
Protocol: as §1, §2, §3, §4, §5, §6

Sequence of human RIPK3 (Q9Y572 whole entry): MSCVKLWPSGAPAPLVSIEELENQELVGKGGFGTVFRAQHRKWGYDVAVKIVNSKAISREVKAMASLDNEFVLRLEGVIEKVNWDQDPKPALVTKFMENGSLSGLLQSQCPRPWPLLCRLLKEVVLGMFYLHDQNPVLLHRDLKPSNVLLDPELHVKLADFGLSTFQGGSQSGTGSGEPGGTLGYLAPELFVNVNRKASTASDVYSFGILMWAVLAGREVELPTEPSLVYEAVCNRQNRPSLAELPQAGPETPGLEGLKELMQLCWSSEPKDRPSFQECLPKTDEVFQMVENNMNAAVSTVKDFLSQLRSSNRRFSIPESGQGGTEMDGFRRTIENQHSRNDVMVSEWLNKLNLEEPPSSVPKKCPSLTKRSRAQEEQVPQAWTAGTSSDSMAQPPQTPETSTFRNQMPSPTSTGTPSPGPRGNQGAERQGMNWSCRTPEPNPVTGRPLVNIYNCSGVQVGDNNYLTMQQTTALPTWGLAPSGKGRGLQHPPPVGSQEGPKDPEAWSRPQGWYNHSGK

Row | SMILES | Kd [1] [µM] | Kd [2] [µM]
1 | C[C@H](Oc1cc(-c2nn(C)c3c(-c4cccc(Cl)c4)cnc(N)c23)ccc1NS(=O)(=O)C(F)F)c1ccc(F)cc1 [Compound 84, (S)-N-(4-(4-amino-7-(3-chlorophenyl)-1-methyl-1H-pyrazolo[4,3-c]pyridin-3-yl)-2-(1-(4-fluorophenyl)ethoxy)phenyl)-1,1-difluoromethanesulfonamide] | > 10 | > 10
2 | C[C@H](Oc1cc(-c2nn(C)c3c(-c4ccccc4Cl)cnc(N)c23)ccc1NS(=O)(=O)C(F)F)c1ccc(F)cc1 [Compound 85, (S)-N-(4-(4-amino-7-(2-chlorophenyl)-1-methyl-1H-pyrazolo[4,3-c]pyridin-3-yl)-2-(1-(4-fluorophenyl)ethoxy)phenyl)-1,1-difluoromethanesulfonamide] | > 10 | > 10
3 | C[C@H](Oc1cc(-c2nn(C)c3c(-c4ccccc4)cnc(N)c23)ccc1NS(=O)(=O)C(F)F)c1ccc(F)cc1 [Compound 86, (S)-N-(4-(4-amino-1-methyl-7-phenyl-1H-pyrazolo[4,3-c]pyridin-3-yl)-2-(1-(4-fluorophenyl)ethoxy)phenyl)-1,1-difluoromethanesulfonamide] | > 10 | > 10
4 | C[C@H](Oc1cc(-c2nn(C)c3c(-c4ccc(Cl)cc4)cnc(N)c23)ccc1NS(=O)(=O)C(F)F)c1ccc(F)cc1 [Compound 87, (S)-N-(4-(4-amino-7-(4-chlorophenyl)-1-methyl-1H-pyrazolo[4,3-c]pyridin-3-yl)-2-(1-(4-fluorophenyl)ethoxy)phenyl)-1,1-difluoromethanesulfonamide] | > 10 | > 10
5 | C[C@H](Oc1cc(-c2nn(C)c3c(-c4cnn(CC5CCCN5)c4)cnc(N)c23)ccc1NS(=O)(=O)C(F)F)c1ccc(F)cc1 (stereo partly drawn) [Compound 88, N-(4-(4-amino-1-methyl-7-(1-(pyrrolidin-2-ylmethyl)-1H-pyrazol-4-yl)-1H-pyrazolo[4,3-c]pyridin-3-yl)-2-((S)-1-(4-fluorophenyl)ethoxy)phenyl)-1,1-difluoromethane-sulfonamide] | > 10 | > 10
6 | C[C@H](Oc1cc(-c2nn(C)c3c(-c4cnn5c4CNCC5)cnc(N)c23)ccc1NS(=O)(=O)C(F)F)c1ccc(F)cc1 [Compound 90, (S)—N-(4-(4-amino-1-methyl-7-(4,5,6,7-tetrahydropyrazolo[1,5-a]pyrazin-3-yl)-1H-pyrazolo[4,3-c]pyridin-3-yl)-2-(1-(4-fluorophenyl)ethoxy)phenyl)-1,1-difluoromethanesulfonamide] | > 10 | > 10
7 | C[C@H](Oc1cc(-c2nn(C)c3c(-c4cnn5c4CN(C)CC5)cnc(N)c23)ccc1NS(=O)(=O)C(F)F)c1ccc(F)cc1 [Compound 91, (S)—N-(4-(4-amino-1-methyl-7-(5-methyl-4,5,6,7-tetrahydropyrazolo[1,5-a]pyrazin-3-yl)-1H-pyrazolo[4,3-c]pyridin-3-yl)-2-(1-(4-fluorophenyl)ethoxy)phenyl)-1,1-difluoromethanesulfonamide] | > 10 | > 10
8 | CC1CNCC(n2cc(-c3cnc(N)c4c(-c5ccc(NS(=O)(=O)C(F)F)c(O[C@@H](C)c6ccc(F)cc6)c5)nn(C)c34)cn2)C1 (stereo partly drawn) [Compound 95, N-(4-(4-amino-1-methyl-7-(1-(5-methylpiperidin-3-yl)-1H-pyrazol-4-yl)-1H-pyrazolo[4,3-c]pyridin-3-yl)-2-((S)-1-(4-fluorophenyl)ethoxy)phenyl)-1,1-difluoromethane-sulfonamide] | > 10 | > 10
9 | C[C@H](Oc1cc(-c2nn(C)c3c(-c4cnn(C5CC6(C5)CN(C)C6)c4)cnc(N)c23)ccc1NS(=O)(=O)C(F)F)c1ccc(F)cc1 [Compound 99, (S)-N-(4-(4-amino-1-methyl-7-(1-(2-methyl-2-azaspiro[3.3]heptan-6-yl)-1H-pyrazol-4-yl)-1H-pyrazolo[4,3-c]pyridin-3-yl)-2-(1-(4-fluorophenyl)eth-oxy)phenyl)-1,1-difluoromethane-sulfonamide] | > 10 | > 10
